Experimental data: patent publication US20050049197A1, “Induction of immune response against desired determinants” (Epimmune Inc., priority 1993, published 2005)
“And” between values parts separate entries of the source, which are not always exact repeats. Equal values may be shown once.

Columns and labels:
IAk = IAk (Mus musculus, UniProt P01910+P06343); test: biochemical
DR1 = DR1 (Homo sapiens, UniProt P01903+P01911, A100R/D57E/F55L/F60I/F76Y/I96L/L162R/M171V/P40L/Q125E/R42F/V115G/Y59C); test: biochemical; assay type: binding
DR2w2b = test system: DR2w2b; design: species or system human; conditions: read-out: Binding Activity DR2wB2, IC50
DR4w4 = DR4w4 (Homo sapiens, UniProt P01903+P01911, A100K/A169T/F76Y/I96L/K127E/L162R/M171V/N62H/P40V/Q125Y/R42H/S133A/S149N/S66Y/V115G/V209L/W38E); test: biochemical; assay type: binding
DR5 = test system: DR5; design: species or system human; conditions: read-out: Binding Activity DR5, IC50
DQ3.1 = test system: DQ3.1; design: species or system human; conditions: read-out: Binding Activity DQ3.1, IC50
[1] = test system: PBMC from normal individuals; test: In vitro T cell proliferative responses of human PBMC ([3H]thymidine incorporation); assay type: cell-based; conditions: for AVERAGE S.I. / AVERAGE ΔMAX CPM: average of 5 donors; for X144 (Δmax cpm) / X144 S.I.: donor X144; for X162 (Δmax cpm) / X162 S.I.: donor X162; for X349 (Δmax cpm) / X349 S.I.: donor X349; for X372 (Δmax cpm) / X372 S.I.: donor X372; for X460 (Δmax cpm) / X460 S.I.: donor X460
DR3 = test system: DR3; design: species or system human; conditions: read-out: Binding Activity DR3, IC50
DRw53 = DRw53 (Homo sapiens, UniProt P01903+P13762); test: biochemical; assay type: binding
[2] = test system: P. falciparum sporozoites; test: Inhibition of liver stage development assay (ILSDA), human hepatocytes infected with P. falciparum sporozoites; assay type: cell-based; conditions: sera of C57BL/6 mice immunized with peptide in CFA/IFA, final dilution 1:100
Protocol: (§1) In certain experiments, peptides were emulsified in complete Freund's adjuvant (CFA) and injected subcutaneously (S.C.) at the base of the tail in 100 μl volume containing 100 μg of peptide. Mice were boosted with 100 μg of peptide emulsified in 100 μl of incomplete Freund's adjuvant (IFA) 1 month later. Mice were bled just prior to boosting, and 2 weeks after boosting.
Human hepatocytes were isolated from nontransplantable liver tissue donated for research. […] The hepatocytes were allowed to attach and spread overnight with the media being changed the following day.
(§2) The 17XNL (nonlethal) strain of P. yoelii or the NF54 strain of P. falciparum were used for murine and human hepatocyte in vitro infections, respectively.
(§3) Briefly, 25 μl of the serum samples, diluted to 2× their final concentration, were added to triplicate chamber-slide wells. P. yoeilli or P. falciparum sporozoites, 75,000/well, were then added in a volume of 25 μl to the mouse or human hepatocyte cultures respectively. The cultures were incubated for 3 h, then washed extensively with fresh medium to remove unattached sporozoites. The infected hepatocytes were then incubated for a further 2 (P. yoelii) or 5 days (P. falciparum) with the medium being changed each day of culture. The slides were fixed and immunostained with either a P. yoelii- or P. falciparum-specific monoclonal antibody. Schizonts were counted from the triplicate cultures and the percent inhibition determined as follows: control−test/control×100. Sera from mice injected with CFA (first dose) and IFA (second and third doses) served as the negative controls.

P. yoelii sporozoites = test: Inhibition of liver stage development assay (ILSDA), mouse hepatocytes infected with P. yoelii sporozoites; assay type: cell-based; conditions: sera of immunized mice, mouse hepatocytes
Protocol: as §1
All cell culture reagents were obtained from quality Biological, Gaithersburg, Md. The slides were incubated overnight at 37° C. in a 5% CO2/95% air environment. The medium was changed the following day and fresh medium containing dexamethasone (7×10^−5) was added to the cultures.
as §2, §3

[3] = test system: P. yoelii 17XNL sporozoites; conditions: in vivo
[4] = test system: air-dried P. yoelii sporozoites; conditions: in vivo

Row | Molecule | IC50 (DR2w2b) | IC50 (DR5) | IC50 (DQ3.1) | AVERAGE S.I. ([1]; 2nd Stimulation) | AVERAGE ΔMAX CPM ([1]; 2nd Stimulation) | X144 (Δmax cpm) ([1]; 2nd Stimulation) | X144 S.I. ([1]; 2nd Stimulation) | X162 (Δmax cpm) ([1]; 2nd Stimulation) | X162 S.I. ([1]; 2nd Stimulation) | X349 (Δmax cpm) ([1]; 2nd Stimulation) | X349 S.I. ([1]; 2nd Stimulation) | X372 (Δmax cpm) ([1]; 2nd Stimulation) | X372 S.I. ([1]; 2nd Stimulation) | X460 (Δmax cpm) ([1]; 2nd Stimulation) | X460 S.I. ([1]; 2nd Stimulation) | AVERAGE S.I. ([1]; 3rd Stimulation) | AVERAGE ΔMAX CPM ([1]; 3rd Stimulation) | X144 (Δmax cpm) ([1]; 3rd Stimulation) | X144 S.I. ([1]; 3rd Stimulation) | X162 (Δmax cpm) ([1]; 3rd Stimulation) | other results
1 | CC[C@H](C)[C@H](NC(=O)CNC(=O)[C@H](Cc1ccc(O)cc1)NC(=O)[C@H](CC(=O)O)NC(=O)[C@@H](NC(=O)[C@H](CO)NC(=O)CNC(=O)[C@H](CC(=O)O)NC(=O)[C@@H](NC(=O)[C@H](CC(N)=O)NC(=O)[C@@H](N)Cc1ccc(O)cc1)[C@@H](C)O)[C@@H](C)O)C(=O)N[C@@H](CC(C)C)C(=O)N[C@@H](CCC(N)=O)C(=O)N[C@H](C(=O)N[C@@H](CC(N)=O)C(=O)N[C@@H](CO)C(=O)N[C@@H](CCCNC(=N)N)C(=O)O)[C@@H](C)CC [HEL 46-61] |  |  |  |  |  |  |  |  |  |  |  |  |  |  |  |  |  |  |  |  | IC50 (IAk): 20 nM
2 | CC(C)C[C@H](NC(=O)[C@@H](NC(=O)[C@H](Cc1c[nH]c2ccccc12)NC(=O)[C@H](C)NC(=O)[C@H](C)NC(=O)[C@@H](NC(=O)[C@H](CC1CCCCC1)NC(=O)[C@H](CCCCN)NC(=O)[C@@H](C)N)C(C)C)[C@@H](C)O)C(=O)N[C@@H](CCCCN)C(=O)N[C@@H](C)C(=O)N[C@@H](C)C(=O)N[C@H](C)C(N)=O [965.10] | 5.6 nM | 11.1 nM | 25 nM | 3.9 | 25767 cpm | 11663 cpm | 1.8 | 20693 cpm | 7.9 | 22133 cpm | 3.5 | 44414 cpm | 3.2 | 29933 cpm | 3.3 | 11.5 | 31002 cpm | 33159 cpm | 14 | 34548 cpm | IC50 (DR1): 1.2 nM; IC50 (DR4w4): 2.8 nM; X162 S.I. ([1]; 3rd Stimulation): 11; X349 (Δmax cpm) ([1]; 3rd Stimulation): 38931 cpm; X349 S.I. ([1]; 3rd Stimulation): 3.5; X372 (Δmax cpm) ([1]; 3rd Stimulation): 36995 cpm; X372 S.I. ([1]; 3rd Stimulation): 15; X460 (Δmax cpm) ([1]; 3rd Stimulation): 11376 cpm; X460 S.I. ([1]; 3rd Stimulation): 15
3 | CC(C)C[C@H](NC(=O)[C@@H](NC(=O)[C@H](CCCCN)NC(=O)[C@H](C)NC(=O)[C@H](C)NC(=O)[C@@H](NC(=O)[C@H](CC1CCCCC1)NC(=O)[C@H](CCCCN)NC(=O)[C@@H](C)N)C(C)C)[C@@H](C)O)C(=O)N[C@@H](CCCCN)C(=O)N[C@@H](C)C(=O)N[C@@H](C)C(=O)N[C@H](C)C(N)=O [965.14] | 8 nM | 3.4 nM | > 10000 nM | 1.5 | 5523 cpm | 3570 cpm | 1.1 | 4655 cpm | 2.1 | 4421 cpm | 1.3 | 10608 cpm | 1.4 | 4365 cpm | 1.4 | 2 | 10583 cpm | 4319 cpm | 2.3 | 10734 cpm | IC50 (DR3): 781 nM; IC50 (DR4w4): 7.4 nM; IC50 (DRw53): 52.8 nM; X162 S.I. ([1]; 3rd Stimulation): 1.7; X349 (Δmax cpm) ([1]; 3rd Stimulation): 17849 cpm; X349 S.I. ([1]; 3rd Stimulation): 2; X372 (Δmax cpm) ([1]; 3rd Stimulation): 19140 cpm; X372 S.I. ([1]; 3rd Stimulation): 2.1; X460 (Δmax cpm) ([1]; 3rd Stimulation): 874 cpm; X460 S.I. ([1]; 3rd Stimulation): 2
4 | G(QGPGAP)4 [PyB] |  |  |  |  |  |  |  |  |  |  |  |  |  |  |  |  |  |  |  |  | Mean schizonts/well ± S.D. [2]: 70 ± 14 schizonts/well; % Inhibition (P. yoelii sporozoites; dilution 1:100): 50%; Mean schizonts/well + S.D. (P. yoelii sporozoites; dilution 1:100): 41 + 3.8 schizonts/well; % Inhibition (P. yoelii sporozoites; dilution 1:200): 43.2%; Mean schizonts/well + S.D. (P. yoelii sporozoites; dilution 1:200): 46 + 4 schizonts/well; % Protected [3]: 12.5%; Infected/challenged [3]: 7/8; levels of antibodies against sporozoites and the PyCSP (immunogenicity, in words) [4]: poorly immunogenic
5 | (NANP)4 [PfB] |  |  |  |  |  |  |  |  |  |  |  |  |  |  |  |  |  |  |  |  | % Inhibition [2]: 80% and 79.7%; Mean schizonts/well ± S.D. [2]: 15.6 ± 8.7 schizonts/well; % Inhibition (P. yoelii sporozoites; dilution 1:100): 13.4%; Mean schizonts/well + S.D. (P. yoelii sporozoites; dilution 1:100): 71 ± 7 schizonts/well; % Inhibition (P. yoelii sporozoites; dilution 1:200): 6.2%; Mean schizonts/well + S.D. (P. yoelii sporozoites; dilution 1:200): 76 ± 7 schizonts/well
6 | CC(C)C[C@H](NC(=O)[C@@H](NC(=O)[C@H](Cc1ccc(O)cc1)NC(=O)[C@H](C)NC(=O)[C@H](C)NC(=O)[C@@H](NC(=O)[C@H](CC1CCCCC1)NC(=O)[C@H](CCCCN)NC(=O)[C@@H](C)N)C(C)C)[C@@H](C)O)C(=O)N[C@@H](CCCCN)C(=O)N[C@@H](C)C(=O)N[C@@H](C)C(=O)N[C@H](C)C(N)=O [965.09] | 7.4 nM | 5.4 nM | > 10000 nM | 1.9 | 12059 cpm | 13693 cpm | 1.8 | 10710 cpm | 1.1 | 18079 cpm | 3.8 | 17813 cpm | 1.6 | 0 cpm | 1 | 4.1 | 22599 cpm | 14087 cpm | 2.6 | 35635 cpm | IC50 (DR3): 250 nM; IC50 (DRw53): 86.4 nM; X162 S.I. ([1]; 3rd Stimulation): 5.2; X349 (Δmax cpm) ([1]; 3rd Stimulation): 31811 cpm; X349 S.I. ([1]; 3rd Stimulation): 5.5; X372 (Δmax cpm) ([1]; 3rd Stimulation): 29159 cpm; X372 S.I. ([1]; 3rd Stimulation): 4.4; X460 (Δmax cpm) ([1]; 3rd Stimulation): 2301 cpm; X460 S.I. ([1]; 3rd Stimulation): 2.9
